# Data published in US20250327034A1, “CELL CULTURE MEDIUM” (Ajinomoto Co., Inc., priority 2022, published 2025).
# System: CHO cell
# Assay: CHO cell fed-batch culture (ambr15) with high L-cysteine feed: antibody yield (Example 6)
# Assay type: cell-based, Chinese hamster
# Conditions: CHO cells, 11 mM, 18 mM and 23-24 mM equivalent L-cysteine feed sections
# Protocol: Basal media were prepared by adding a final concentration of 4 mM L-Glutamine (Thermo Fisher Scientific: 25030081) to media that were designed on the basis of CELLIST™ Basal media (AJINOMOTO CO., INC.: BASAL10).
# Feed Media A were prepared on the basis of the commercially available CELLIST™ Feed media (AJINOMOTO CO., INC.: FEED 2). Feed media A containing a final concentration of 11 or 18 mM L-cysteine and 60 g/L glucose were prepared to have a pH of 6.7-6.9 according to the procedures described in the product instructions for FEED 2.
# A 110 mM L-cysteine solution (pH 11.3) was prepared.
# Using the prepared basal media, CHO suspensions adjusted to 7×10^5 celllls/mL were cultured for 14 days using the ambr15 cell culture system (Sartorius AG). All of the experimental groups were performed with n=2. […] The antibody yields on day 14 in these conditioned sections were measured using Cedex Bio HT (Roche Diagnostics K.K.)
smiles,measurement,value
N[C@@H](CS)C(=O)O [L-cysteine],Antibody yield on day 14,improves the antibody yield
